From patent publication US20060211072A1, “Process, composition and kit for providing a stable whole blood calibrator/control” (Streck, Inc., priority 2005, published 2006)

Legend:
[1] = system: glycolysis in whole blood; assay: YSI glucose concentration over time in whole blood specimens with D,L glyceraldehyde added; type: cell-based
Protocol: FIG. 4 illustrates the YSI glucose concentration (mg/dL) of blood specimens containing EDTA at various final concentrations of a mixture of D,L glyceraldehydes at 0.0, 1.0, 5.0, 10.0 and 20.0 mM, obtained over 4 weeks of real time testing at about 2° C. to about 10° C.;
FIG. 5 illustrates the YSI 2300 (reference analyzer) glucose concentration (mg/dL) of blood specimens treated at various concentrations of D,L glyceraldehyde over 3 weeks at about 2° C. to about 10° C., wherein the control is an untreated blood sample;
In one method, a sample containing a cellular component, (i.e. RBCs, WBCs) is collected into a microfuge or vacuum tube, e.g. […]®, (such as supplied by Becton, Dickinson and Company, Franklin Lakes, N.J.). The initial concentration of glucose in the sample can be 50 […].
The vacuum tube may contain any appropriate anticoagulant agent known to one of ordinary skill, including oxalate, EDTA, citrate, heparin or combination thereof, to form a suspension. If used, the anticoagulant may be added together simultaneously, or sequentially, to the sample.
The resulting suspension is incubated at about 2° C. to about 30° C. and allowed to undergo glycolysis until the glucose level is less than about 20 mg/dL. […]

[2] = system: glycolysis in red blood cells; assay: YSI glucose recovery of red blood cells treated with glyceraldehyde, washed and recombined with plasma and glucose; type: cell-based; conditions: RBCs treated with 20, 35 and 50 mM for 72 hours at 2-10 C; after 34 days (FIG. 6)
Protocol: FIG. 6 illustrates the YSI 2300 (reference analyzer) glucose concentration (mg/dL) of blood specimens at various concentrations of D,L glyceraldehyde respectively over 4 weeks at about 2° C. to about 10° C., wherein the control is untreated blood sample. Red blood cells were treated, washed and recombined with plasma and glucose.
RBC Treatment w/ Glyceraldehyde & Subsequent Removal
• 1) Employ fresh whole blood collected in standard anticoagulant (i.e. EDTA, heparin, sodium citrate) from a healthy adult population. Alternative blood sources may include bovine, avian, porcine, equine, goat, or alligator. • 2) Allow sufficient time for the natural enzymatic breakdown of glucose to occur (i.e. glycolysis). Deplete glucose concentration to less than about 20 mg/dl. Preferred storage at 2°-30° C. • 3) Separate RBC cellular component from plasma fraction via gravity settling and or centrifugation. If desired, the removed plasma fraction may be retained for reintroduction. • 4) Wash RBC cellular component with isotonic phosphate buffered saline solution (3×). Exchange diluent via centrifugation is preferred (15 minutes @ 1500 rpm (650×g). • 5) Adjust RBC concentration to approximately 4.0×10^6/mm^3±0.25×10^6/mm^3. […]

[3] = system: glycolysis in whole blood; conditions: final concentration about 0.9 to 20 mM in blood sample; testing within 16 hours; cited from earlier work

SMILES | YSI glucose concentration loss ([1]; 20.0 mM D,L glyceraldehyde in EDTA, at 4 weeks, about 2-10 C (FIG. 4)) | YSI glucose concentration loss ([1]; 30.0 mM D,L glyceraldehyde in EDTA, glucose burned down then added back, at 3 weeks, about 2-10 C (FIG. 5)) | loss in glucose recovery [2] | glucose loss [3]
O=CC(O)CO (racemic) [D,L glyceraldehyde, 2,3-dihydroxypropanal] | less than 10% | less than 3.5% | < 5% | –
O=CC(O)CO (stereo not shown) [glyceraldehyde, 2,3-dihydroxypropanal] | – | – | – | negligible glucose loss
